Laboratory results as given in publication PMC5218480 (PLoS ONE, 2017).

Test system: MV-4-11 cells
Experiment: Gene expression microarray analysis (Affymetrix PrimeView) and GSEA
Type: cell-based, human
Design: RFU PODN (11730768_x_at) / Fold change /veh PODN (11730768_x_at) / RFU LINC00158 (11744669_a_at) / Fold change /veh LINC00158 (11744669_a_at) / RFU DUSP10 (11751237_a_at) / Fold change /veh DUSP10 (11751237_a_at) / RFU ID3 (11757404_x_at) / Fold change /veh ID3 (11757404_x_at) / RFU PLEKHG5 (11737974_s_at) / Fold change /veh PLEKHG5 (11737974_s_at) / RFU LRRC4B (11730491_at) / Fold change /veh LRRC4B (11730491_at) / RFU GIMAP4 (11747438_a_at) / Fold change /veh GIMAP4 (11747438_a_at) / RFU KRT8 (11758183_x_at) / Fold change /veh KRT8 (11758183_x_at) / RFU CNN1 (11734310_a_at) / Fold change /veh CNN1 (11734310_a_at) / RFU VPS37D (11726825_at) / Fold change /veh VPS37D (11726825_at) / RFU C10orf10 (11716522_x_at) / Fold change /veh C10orf10 (11716522_x_at) / RFU KIR2DL2 /// KIR2DL4 /// KIR2DL5A /// KIR2DL5B /// KIR2DS1 /// KIR2DS2 /// KIR2DS3 /// KIR2DS4 /// KIR3DL3 /// KIR3DL3 /// KIR3DS1 (11738374_at) / Fold change /veh KIR2DL2 /// KIR2DL4 /// KIR2DL5A /// KIR2DL5B /// KIR2DS1 /// KIR2DS2 /// KIR2DS3 /// KIR2DS4 /// KIR3DL3 /// KIR3DL3 /// KIR3DS1 (11738374_at) / RFU C1QL1 (11718748_at) / Fold change /veh C1QL1 (11718748_at) / RFU TMPRSS4 (11747572_a_at) / Fold change /veh TMPRSS4 (11747572_a_at) / RFU HAMP (11756126_x_at) / Fold change /veh HAMP (11756126_x_at) / RFU RNFT2 (11725882_a_at) / Fold change /veh RNFT2 (11725882_a_at) / RFU NR4A2 (11747474_a_at) / Fold change /veh NR4A2 (11747474_a_at) / RFU ABCC12 (11746883_a_at) / Fold change /veh ABCC12 (11746883_a_at) / RFU TMEM136 (11760407_x_at) / Fold change /veh TMEM136 (11760407_x_at) / RFU CLDN22 /// WWC2 (11732394_at) / Fold change /veh CLDN22 /// WWC2 (11732394_at) / RFU HLA-DPB1 (11760878_x_at) / Fold change /veh HLA-DPB1 (11760878_x_at) / RFU SPINT1 (11716480_a_at) / Fold change /veh SPINT1 (11716480_a_at) / RFU GAP43 (11754022_s_at) / Fold change /veh GAP43 (11754022_s_at) / RFU A4GNT (11735810_at) / Fold change /veh A4GNT (11735810_at) / RFU PRB3 (11715151_x_at) / Fold change /veh PRB3 (11715151_x_at) / RFU TUBB4B (11761932_at) / Fold change /veh TUBB4B (11761932_at) / RFU CAPN14 (11732068_a_at) / Fold change /veh CAPN14 (11732068_a_at) / RFU TMCC2 (11721928_a_at) / Fold change /veh TMCC2 (11721928_a_at) / RFU IRGQ (11745062_a_at) / Fold change /veh IRGQ (11745062_a_at) / RFU FAM174B (11720279_a_at) / Fold change /veh FAM174B (11720279_a_at) / RFU TMPRSS4 (11748680_a_at) / Fold change /veh TMPRSS4 (11748680_a_at) / RFU FAM212B (11763350_a_at) / Fold change /veh FAM212B (11763350_a_at) / RFU PLEKHG5 (11743358_a_at) / Fold change /veh PLEKHG5 (11743358_a_at) / RFU ZSCAN30 (11745921_a_at) / Fold change /veh ZSCAN30 (11745921_a_at) / RFU CMKLR1 (11741424_a_at) / Fold change /veh CMKLR1 (11741424_a_at) / RFU LOC101060620 /// MAPK8IP1 (11723275_at) / Fold change /veh LOC101060620 /// MAPK8IP1 (11723275_at) / RFU SPTSSB (11747773_x_at) / Fold change /veh SPTSSB (11747773_x_at) / RFU PRSS12 (11739890_at) / Fold change /veh PRSS12 (11739890_at) / RFU BIN1 (11741810_x_at) / Fold change /veh BIN1 (11741810_x_at) / RFU WNT11 (11732464_a_at) / Fold change /veh WNT11 (11732464_a_at) / RFU C10orf10 (11716521_a_at) / Fold change /veh C10orf10 (11716521_a_at) / RFU C5orf56 (11738089_at) / Fold change /veh C5orf56 (11738089_at) / RFU CYB561 (11721691_x_at) / Fold change /veh CYB561 (11721691_x_at) / RFU ANKRD19P (11752326_a_at) / Fold change /veh ANKRD19P (11752326_a_at) / RFU OR2T12 /// OR2T33 /// OR2T8 (11738714_s_at) / Fold change /veh OR2T12 /// OR2T33 /// OR2T8 (11738714_s_at) / RFU VCAN (11748164_a_at) / Fold change /veh VCAN (11748164_a_at) / RFU JSRP1 (11732532_at) / Fold change /veh JSRP1 (11732532_at) / RFU KRTAP10-11 (11738290_x_at) / Fold change /veh KRTAP10-11 (11738290_x_at) / RFU MYO3A (11730013_a_at) / Fold change /veh MYO3A (11730013_a_at) / RFU EBF3 (11725865_a_at) / Fold change /veh EBF3 (11725865_a_at) / RFU CAMK2N1 (11719241_x_at) / Fold change /veh CAMK2N1 (11719241_x_at) / RFU C5orf56 (11738088_a_at) / Fold change /veh C5orf56 (11738088_a_at) / RFU OLFML3 (11715873_a_at) / Fold change /veh OLFML3 (11715873_a_at) / RFU LOC100653217 /// NTM (11731650_a_at) / Fold change /veh LOC100653217 /// NTM (11731650_a_at) / RFU MAPK11 (11762145_a_at) / Fold change /veh MAPK11 (11762145_a_at) / RFU FIZ1 (11724087_x_at) / Fold change /veh FIZ1 (11724087_x_at) / RFU OASL (11726364_x_at) / Fold change /veh OASL (11726364_x_at) / RFU SOX15 (11748057_x_at) / Fold change /veh SOX15 (11748057_x_at) / RFU CD79A (11719716_a_at) / Fold change /veh CD79A (11719716_a_at) / RFU HIST1H1D (11736915_at) / Fold change /veh HIST1H1D (11736915_at) / RFU CASKIN2 (11723855_a_at) / Fold change /veh CASKIN2 (11723855_a_at) / RFU LOC730098 (11760151_x_at) / Fold change /veh LOC730098 (11760151_x_at) / RFU OR4N2 (11742367_at) / Fold change /veh OR4N2 (11742367_at) / RFU PRRT2 (11749266_a_at) / Fold change /veh PRRT2 (11749266_a_at) / RFU SNX32 (11753110_a_at) / Fold change /veh SNX32 (11753110_a_at) / RFU CDHR5 (11726645_a_at) / Fold change /veh CDHR5 (11726645_a_at) / RFU RCAN1 (11760418_a_at) / Fold change /veh RCAN1 (11760418_a_at) / RFU FAM167A (11723789_a_at) / Fold change /veh FAM167A (11723789_a_at) / RFU FAM26E (11764081_at) / Fold change /veh FAM26E (11764081_at) / RFU ISYNA1 (11749810_s_at) / Fold change /veh ISYNA1 (11749810_s_at) / RFU ACY1 (11761880_at) / Fold change /veh ACY1 (11761880_at) / RFU 11764098_at / Fold change /veh 11764098_at / RFU SAMD14 (11745864_x_at) / Fold change /veh SAMD14 (11745864_x_at) / RFU NPB (11741838_a_at) / Fold change /veh NPB (11741838_a_at) / RFU TMPRSS6 (11731388_a_at) / Fold change /veh TMPRSS6 (11731388_a_at) / RFU KRTAP10-2 (11738614_at) / Fold change /veh KRTAP10-2 (11738614_at) / RFU ARHGAP8 /// PRR5-ARHGAP8 (11727945_x_at) / Fold change /veh ARHGAP8 /// PRR5-ARHGAP8 (11727945_x_at) / RFU KRTAP5-7 /// NADSYN1 (11734609_at) / Fold change /veh KRTAP5-7 /// NADSYN1 (11734609_at) / RFU RASL12 (11751679_a_at) / Fold change /veh RASL12 (11751679_a_at) / RFU CDKN2B (11736163_a_at) / Fold change /veh CDKN2B (11736163_a_at) / RFU PRF1 (11729649_at) / Fold change /veh PRF1 (11729649_at) / RFU, ZNF638 /// ZNF638-IT1 / Fold change vs veh, ZNF638 /// ZNF638-IT1 / RFU, PANK3 / Fold change vs veh, PANK3 / RFU, SH3YL1 / Fold change vs veh, SH3YL1 / RFU, ZEB2 / Fold change vs veh, ZEB2 / RFU, NRIP1 / Fold change vs veh, NRIP1 / RFU, PTTG1IP / Fold change vs veh, PTTG1IP / RFU, CAPN2 / Fold change vs veh, CAPN2 / RFU, MED14 / Fold change vs veh, MED14 / RFU, SNORA58 / Fold change vs veh, SNORA58 / RFU, C1orf63 / Fold change vs veh, C1orf63 / RFU, LRRFIP1 / Fold change vs veh, LRRFIP1 / RFU, NDUFAF7 / Fold change vs veh, NDUFAF7 / RFU, SLC12A2 / Fold change vs veh, SLC12A2 / RFU, IBTK / Fold change vs veh, IBTK / RFU, ESF1 / Fold change vs veh, ESF1 / Fold change vs veh, TMEM50B / RFU, TAOK1 / Fold change vs veh, TAOK1 / RFU, ACBD3 / Fold change vs veh, ACBD3 / RFU, TMA16 / Fold change vs veh, TMA16 / RFU, RWDD3 / Fold change vs veh, RWDD3 / RFU, BCAT1 / Fold change vs veh, BCAT1 / RFU, EDEM3 / Fold change vs veh, EDEM3 / RFU, TMEM33 / Fold change vs veh, TMEM33 / RFU, WDR75 / Fold change vs veh, WDR75 / RFU, AHCTF1 / Fold change vs veh, AHCTF1 / RFU, TFRC / Fold change vs veh, TFRC / RFU, ZDHHC17 / Fold change vs veh, ZDHHC17 / RFU, NOM1 / Fold change vs veh, NOM1 / RFU, ARL8B / Fold change vs veh, ARL8B / RFU, ZBTB11 / Fold change vs veh, ZBTB11 / RFU, TAMM41 / Fold change vs veh, TAMM41 / RFU, KIAA1704 /// LOC100996395 / Fold change vs veh, KIAA1704 /// LOC100996395 / RFU, ING1 / Fold change vs veh, ING1 / RFU, TRMT61B / Fold change vs veh, TRMT61B / RFU, FUBP3 / Fold change vs veh, FUBP3 / RFU, TP53 / Fold change vs veh, TP53 / RFU, TNKS2 / Fold change vs veh, TNKS2 / RFU, ZFP14 / Fold change vs veh, ZFP14 / RFU, ACTR2 / Fold change vs veh, ACTR2 / RFU, PPP3R1 / Fold change vs veh, PPP3R1 / RFU, PIK3R1 / Fold change vs veh, PIK3R1 / RFU, HNRNPA1 / Fold change vs veh, HNRNPA1 / RFU, RNF170 / Fold change vs veh, RNF170 / RFU, ZNF28 / Fold change vs veh, ZNF28 / RFU, RNGTT / Fold change vs veh, RNGTT / RFU, OGT / Fold change vs veh, OGT / RFU, BRD1 / Fold change vs veh, BRD1 / RFU, MARS / Fold change vs veh, MARS / RFU, ZNF655 / Fold change vs veh, ZNF655 / RFU, FAHD1 / Fold change vs veh, FAHD1 / RFU, BDP1 / Fold change vs veh, BDP1 / RFU, LRRCC1 / Fold change vs veh, LRRCC1 / RFU, ARID1A / Fold change vs veh, ARID1A / RFU, ZNF146 / Fold change vs veh, ZNF146 / RFU, ZNF330 / Fold change vs veh, ZNF330 / RFU, GPN3 / Fold change vs veh, GPN3 / RFU, C9orf123 / Fold change vs veh, C9orf123 / RFU, N4BP2L2 / Fold change vs veh, N4BP2L2 / RFU, ARFIP1 / Fold change vs veh, ARFIP1 / RFU, FAM179B / Fold change vs veh, FAM179B / RFU, BCL10 / Fold change vs veh, BCL10 / RFU, UHRF1BP1L / Fold change vs veh, UHRF1BP1L / RFU, BET1 / Fold change vs veh, BET1 / RFU, CNOT2 / Fold change vs veh, CNOT2 / RFU, ZNF268 / Fold change vs veh, ZNF268 / Fold change vs veh, ZNF507 / RFU, DGCR2 / Fold change vs veh, DGCR2 / RFU, WDSUB1 / Fold change vs veh, WDSUB1 / Fold change vs veh, HSP90B1 /// MIR3652 / RFU, ADSS / Fold change vs veh, ADSS / RFU, GK / Fold change vs veh, GK / RFU, ZNF148 / Fold change vs veh, ZNF148 / RFU, TAF9 / Fold change vs veh, TAF9 / RFU, SLC1A5 / Fold change vs veh, SLC1A5 / RFU, SLMO2 / Fold change vs veh, SLMO2 / RFU, ABCC4 / Fold change vs veh, ABCC4 / RFU, LOC101060439 /// RAP1B / Fold change vs veh, LOC101060439 /// RAP1B / RFU, RFX7 / Fold change vs veh, RFX7 / RFU, GTPBP10 / Fold change vs veh, GTPBP10 / RFU, CNEP1R1 / Fold change vs veh, CNEP1R1 / RFU, BIVM-ERCC5 /// ERCC5 / Fold change vs veh, BIVM-ERCC5 /// ERCC5 / RFU, ILF3 / Fold change vs veh, ILF3 / RFU 11762660_at / Fold change /veh 11762660_at / RFU VCAN (11757783_s_at) / Fold change /veh VCAN (11757783_s_at) / RFU DDX43 (11728927_at) / Fold change /veh DDX43 (11728927_at) / RFU KRT8 (11758188_x_at) / Fold change /veh KRT8 (11758188_x_at) / RFU NKD1 (11759106_at) / Fold change /veh NKD1 (11759106_at) / RFU SRD5A1 (11742802_a_at) / Fold change /veh SRD5A1 (11742802_a_at) / RFU TPSAB1 /// TPSB2 (11721975_s_at) / Fold change /veh TPSAB1 /// TPSB2 (11721975_s_at) / RFU GSTM3 (11746129_a_at) / Fold change /veh GSTM3 (11746129_a_at) / RFU IL23R (11737362_x_at) / Fold change /veh IL23R (11737362_x_at) / RFU TMEM51 (11727254_a_at) / Fold change /veh TMEM51 (11727254_a_at) / RFU PIWIL2 (11732686_x_at) / Fold change /veh PIWIL2 (11732686_x_at) / RFU ORM1 (11744905_x_at) / Fold change /veh ORM1 (11744905_x_at) / RFU CCDC152 (11743942_at) / Fold change /veh CCDC152 (11743942_at) / RFU ECM1 (11717891_a_at) / Fold change /veh ECM1 (11717891_a_at) / RFU IL23R (11748794_a_at) / Fold change /veh IL23R (11748794_a_at) / RFU TNFAIP8L3 (11732012_x_at) / Fold change /veh TNFAIP8L3 (11732012_x_at) / RFU MBOAT4 (11741988_at) / Fold change /veh MBOAT4 (11741988_at) / RFU 11764193_at / Fold change /veh 11764193_at / RFU TMEM53 (11763286_at) / Fold change /veh TMEM53 (11763286_at) / RFU MAGEB2 (11727129_at) / Fold change /veh MAGEB2 (11727129_at) / RFU TMEM200A (11744735_a_at) / Fold change /veh TMEM200A (11744735_a_at) / RFU CCDC152 (11751479_a_at) / Fold change /veh CCDC152 (11751479_a_at) / RFU FAM211A (11726209_a_at) / Fold change /veh FAM211A (11726209_a_at) / RFU RGS16 (11746705_a_at) / Fold change /veh RGS16 (11746705_a_at) / RFU VCAN (11755009_s_at) / Fold change /veh VCAN (11755009_s_at) / RFU RHOB (11743442_s_at) / Fold change /veh RHOB (11743442_s_at) / RFU RGS16 (11720943_a_at) / Fold change /veh RGS16 (11720943_a_at) / RFU RGS16 (11720944_at) / Fold change /veh RGS16 (11720944_at) / RFU, VPS4B / Fold change vs veh, VPS4B / RFU, CREB1 / Fold change vs veh, CREB1 / RFU, DNAJC13 / Fold change vs veh, DNAJC13 / RFU, GNAQ / Fold change vs veh, GNAQ / RFU, CDK5R1 / Fold change vs veh, CDK5R1 / RFU, ZRANB3 / Fold change vs veh, ZRANB3 / RFU, CUL4A / Fold change vs veh, CUL4A / RFU, CCNY / Fold change vs veh, CCNY / RFU, UFL1 / Fold change vs veh, UFL1 / RFU, COG3 / Fold change vs veh, COG3 / RFU, DIAPH2 / Fold change vs veh, DIAPH2 / RFU, SKA2 / Fold change vs veh, SKA2 / RFU, AFF3 / Fold change vs veh, AFF3 / RFU, LMF1 / Fold change vs veh, LMF1 / RFU, IPO11 / Fold change vs veh, IPO11 / RFU, DFFB / Fold change vs veh, DFFB / RFU, FOXP1 / Fold change vs veh, FOXP1 / RFU, CARD8 / Fold change vs veh, CARD8 / RFU, STRN3 / Fold change vs veh, STRN3 / RFU, ADK / Fold change vs veh, ADK / RFU, RASSF2 / Fold change vs veh, RASSF2 / RFU, WIPF1 / Fold change vs veh, WIPF1 / RFU, LARP1B / Fold change vs veh, LARP1B / RFU, RASA1 / Fold change vs veh, RASA1 / RFU, RB1 / Fold change vs veh, RB1 / RFU, PPFIA1 / Fold change vs veh, PPFIA1 / RFU, MAT2A / Fold change vs veh, MAT2A / RFU, CCT5 / Fold change vs veh, CCT5 / RFU, WDR92 / Fold change vs veh, WDR92 / RFU, CUX1 / Fold change vs veh, CUX1 / RFU, TTC7A / Fold change vs veh, TTC7A / RFU, TMEM135 / Fold change vs veh, TMEM135 / RFU, DEPTOR / Fold change vs veh, DEPTOR / RFU, CPM / Fold change vs veh, CPM / RFU, DNAJB6 / Fold change vs veh, DNAJB6 / RFU, CACNA2D3 / Fold change vs veh, CACNA2D3 / RFU, DTX4 / Fold change vs veh, DTX4 / RFU, TFCP2 / Fold change vs veh, TFCP2 / RFU, GMCL1 /// GMCL1P1 / Fold change vs veh, GMCL1 /// GMCL1P1 / RFU, AEBP2 / Fold change vs veh, AEBP2 / RFU, SNHG1 /// SNORD22 /// SNORD25 /// SNORD26 /// SNORD27 /// SNORD28 /// SNORD29 /// SNORD31 / Fold change vs veh, SNHG1 /// SNORD22 /// SNORD25 /// SNORD26 /// SNORD27 /// SNORD28 /// SNORD29 /// SNORD31 / Fold change (Aza/veh), C12orf56 (ProbeSet 11735607_a_at) / Fold change (ACY-1035/veh), C12orf56 (ProbeSet 11735607_a_at) / Fold change (Aza/veh), FGFR1OP (ProbeSet 11751329_s_at) / Fold change (ACY-1035/veh), FGFR1OP (ProbeSet 11751329_s_at) / Fold change (Aza/veh), VPS36 (ProbeSet 11739960_a_at) / Fold change (ACY-1035/veh), VPS36 (ProbeSet 11739960_a_at) / RFU SYPL1 (11715823_x_at) / Fold change /veh SYPL1 (11715823_x_at) / RFU IGFBP7 (11715501_s_at) / Fold change /veh IGFBP7 (11715501_s_at) / RFU REEP3 (11722064_at) / Fold change /veh REEP3 (11722064_at) / RFU IGLL1 (11728026_x_at) / Fold change /veh IGLL1 (11728026_x_at): dose or concentration left out as unconfirmed
Settings: MV-4-11 cells, 48 hours

**Q.** `Nc1ccc(-c2cccs2)cc1NC(=O)c1ccc2c(c1)cc(C1CC1)n2CCN1CCOCC1` [ACY-1035] was tested. Which “RFU ID3 (11757404_x_at)” value did it give?
**A.** Its value is 47.18 RFU.
